Assay results taken from patent US20130281313A1, “PROGNOSTIC AND/OR PREDICTIVE BIOMARKERS AND BIOLOGICAL APPLICATIONS THEREOF” (INSTITUT GUSTAVE ROUSSY, priority 2010, published 2013).

Tests used:
A549 cells = experiment: Cytofluorometric assessment of cell death (DiOC6(3)/PI co-staining); type: cell-based, human
Protocol: Unless otherwise specified, chemicals were purchased from Sigma-Aldrich (St. Louis, USA), culture media and supplements for cell culture from Gibco-Invitrogen (Carlsbad, USA) and plasticware from Corning (Corning, USA). […] Orlistat (Xenical®) was obtained from Roche (Basel, Switzerland). […] Undissolved material was removed by two sequential rounds of centrifugation at 12,000 G (5 min, room temperature, RT), supernatants were collected and stored at −80° C. under protection from light until use. In low-throughput experiments, all cell lines were treated with 2.5 mM pyridoxine (PN), exception made for A549 cells that received 5 mM PN.
To avoid depleting the siRNA library of selected sequences, siRNAs for validation experiments were purchased as custom molecules from Sigma-Aldrich. For low-throughput experiments, (see below for the transfection protocols employed in the siRNA screen), siRNA were transfected in A549 cells with Oligofectamine™ reagent (Invitrogen), following the manufacturer's instructions. Transfection with a non-targeting siRNA (siUNR) was employed as a negative control condition. Forty-eight hours after transfection, siRNA-mediated target downregulation was assessed by immunoblotting (see below).
All cytofluorometric determinations were carried out a FACSCalibur or a FACScan cytofluorometer (BD Biosciences, San Jose, USA) equipped with a 70 μm nozzle.
First line statistical analysis of cytofluorometric results was performed by using the CellQuest™ software (BD Biosciences), by gating on the events characterized by normal forward scatter and side scatter parameters. Apoptosis- and cell cycle-related data were further analyzed with Microsoft Excel (Microsoft Co., Redmond, USA) and statistical significance was assessed by means of two-tailed Student's t test (p<0.05).

[1] = system: A549 cells xenografted into immunodeficient Swiss nude mice; experiment: Tumor graft model: A549 cells in Swiss nude mice; type: in vivo, mouse; details: A549 cells on Swiss nude mice; 5 mg/kg intraperitoneal CDDP + intraperitoneal Orlistat (240 mg/Kg), three times a week
Protocol: (§1) C57BL/6 (H-2b) and Swiss Nude mice were obtained from Janvier (Le Genest St. Isle, France) and Charles River, respectively. Animals were maintained in pathogen-free conditions, and all experiments were carried out (upon approval by the local ethical committee) according to the Federation of European Laboratory Animal Science Association (FELASA) guidelines. Mice were used between 6 and 12 weeks of age. During the experiments, animals were subjected to artificial light cycle (12 h lights on-12 h lights off) and allowed food and drink ad libitum.
(§2) 5×10^5 LLC and A549 cells were subcutaneously xenografted (in 100 μL sterile PBS) in 25-30 immunocompetent (C57BL/6) and immunodeficient (Swiss Nude) mice, respectively. When the surface of tumors reached 25-40 mm^2, n=4-6 mice were assigned to either of 4 different treatment groups: group 1=100 μL intraperitoneal PBS; group 2=5 mg/kg intraperitoneal CDDP in 100 μL PBS; group 3=240 mg/Kg intraperitoneal Orlistat® in 40 μL PBS; group 4=5 mg/kg intraperitoneal CDDP in 100 μL PBS+intraperitoneal Orlistat® in 40 μL PBS. Treatments were administered three times a week (day 1, 3 and 5; day 8=day 1). Tumor size was monitored on the day of treatment by means of a standard calliper and tumor volume was extrapolated as previously described {Streit, 1999}. […] Statistical significance was evaluated by two-way ANOVA.

[2] = system: murine Lewis lung carcinoma (LLC) cells in immunocompetent C57BL/6 mice; experiment: Tumor graft model: LLC cells in C57BL/6 mice; type: in vivo, mouse; details: 5 mg/kg intraperitoneal CDDP + intraperitoneal Orlistat (240 mg/Kg), three times a week
Protocol: as §1, §2

CCCCCCCCCCC[C@@H](C[C@@H]1OC(=O)[C@H]1CCCCCC)OC(=O)[C@H](CC(C)C)NC=O [Orlistat®, Orlistat]
cytotoxicity of CDDP upon pharmacological inhibition of LIPC (A549 cells; A549 cells in vitro, 25 or 75 μM CDDP): enhanced the cytotoxiticy of CDDP against A549 cells in vitro
CDDP-induced killing, LIPC inhibition (orlistat) combined with IL6R inhibition (A549 cells; A549 cells, followed by CDDP, DiOC6(3)/PI co-staining): synergistically sensitized to CDDP-induced killing
antitumor effects of CDDP-based chemotherapy (tumor growth) [1]: augmented the antitumor effects of CDDP-based chemotherapy in vivo
antitumor effects of CDDP-based chemotherapy (tumor growth) [2]: augmented the antitumor effects of CDDP-based chemotherapy in vivo
